Results: patent publication US8563009B2, “Use of monomycolyl glycerol (MMG) as an adjuvant” (priority 2007, dated 2013)

Experiments:
[1] = tested on: human peripheral blood monocyte-derived immature DC (iDC); experiment: Activation of human immature dendritic cells, surface markers by flow cytometry; format: cell-based; conditions: 24 h, 10 μg/ml lipid; for mean fold increase in CD86 levels above levels associated with untreated iDC: six individual donors
[2] = tested on: IFN-γ release by PBMC upon restimulation with antigen; experiment: IFN-γ release by lymphocytes of mice immunised with Ag85B-ESAT-6 in adjuvant; format: in vivo, C57BL/6 mice; conditions: for immune response (IFN-γ release by PBMC) in the blood one week after the last vaccination: Ag85B-ESAT-6 in DDA, 10 μg MMG or analogue
[3] = tested on: human peripheral blood monocyte-derived immature DC (iDC); format: cell-based; conditions: 24 h, 10 μg/ml lipid, ELISA, Tukey test
[4] = 10 μg lipid in 250 μg DDA liposomes with 2 μg Ag85B-ESAT-6, s.c.

Compound | DC activation, upregulation of CD86, CD40 and HLA-DR (rank among purified apolar lipids) [1] | mean fold increase in CD86 levels above levels associated with untreated iDC [1] [fold] | IFN-γ production, draining lymph node (in words) [2, 4] | immune response (IFN-γ release by PBMC) in the blood one week after the last vaccination [2] | IFN-γ levels upon restimulation of PBMC isolated from the draining lymph node [2, 4] [ng/mL] | IL-6 release by DC [3]
triacyl glycerols [TAGs] | induced less activation | 1.32±0.14 | very little IFN-γ release | – | – | –
phthiocerol dimycocerosate A [PDIM A] | second most active lipid | 1.82±0.43 | albeit to a lower level | – | – | –
phenolic glycolipid [PGL] | induced less activation | 1.52±0.26 | very little IFN-γ release | – | – | –
CCCCCCCCCCCCCCCCCC[N+](C)(C)CCCCCCCCCCCCCCCCCC.[Br-] [DDA, dimethyldioctadecylammonium] | – | – | – | lower effect | – | –
CCCCCCCC(O)C(CCCCCC)C(=O)OCC(O)CO (centres unmarked) [synthetic MMG analogue with 16 carbons, 3-hydroxy-2-hexyl-decanoic acid-2,3-dihydroxypropyl ester] | – | – | – | comparable levels of responses | – | –
CCCCCCCCCCCCCCCCCC(O)C(CCCCCCCCCCCCCCCC)C(=O)OCC(O)CO (centres unmarked) [synthetic MMG analogue with 36 carbons, 3-hydroxy-2-hexadecylicosanoic acid-2,3-dihydroxypropyl ester] | – | – | – | comparable levels of responses | – | –
monomycolyl glycerol [MMG] | most potent inducer of DC activation | 1.91±0.29 | – | comparable levels of responses | 10 | significantly greater levels
